Experimental data: ChEMBL document CHEMBL4330124, “Discovery of an Orally Available Janus Kinase 3 Selective Covalent Inhibitor” (J Med Chem, 2019)
The source made the active and inactive calls. The rule behind the calls is not given here.

How the values were obtained:
[1] = molecular target: Glycogen synthase kinase-3 beta (Homo sapiens) (UniProt P49841); test: Inhibition of GSK3beta (unknown origin) at 1 uM after 60 mins by Z-LYTE assay relative to control
[2] = molecular target: Protein kinase C alpha type (Homo sapiens) (UniProt P17252); test: Inhibition of PKCalpha (unknown origin) at 1 uM after 60 mins by Z-LYTE assay relative to control
[3] = molecular target: Protein kinase C gamma type (Homo sapiens) (UniProt P05129); test: Inhibition of PKCgamma (unknown origin) at 1 uM after 60 mins by Z-LYTE assay relative to control
[4] = molecular target: Tyrosine-protein kinase BTK (Homo sapiens) (UniProt Q06187); test: Inhibition of BTK (unknown origin) at 1 uM after 60 mins by Z-LYTE assay
Tyrosine-protein kinase BTK (Homo sapiens), sequence (Q06187 whole entry): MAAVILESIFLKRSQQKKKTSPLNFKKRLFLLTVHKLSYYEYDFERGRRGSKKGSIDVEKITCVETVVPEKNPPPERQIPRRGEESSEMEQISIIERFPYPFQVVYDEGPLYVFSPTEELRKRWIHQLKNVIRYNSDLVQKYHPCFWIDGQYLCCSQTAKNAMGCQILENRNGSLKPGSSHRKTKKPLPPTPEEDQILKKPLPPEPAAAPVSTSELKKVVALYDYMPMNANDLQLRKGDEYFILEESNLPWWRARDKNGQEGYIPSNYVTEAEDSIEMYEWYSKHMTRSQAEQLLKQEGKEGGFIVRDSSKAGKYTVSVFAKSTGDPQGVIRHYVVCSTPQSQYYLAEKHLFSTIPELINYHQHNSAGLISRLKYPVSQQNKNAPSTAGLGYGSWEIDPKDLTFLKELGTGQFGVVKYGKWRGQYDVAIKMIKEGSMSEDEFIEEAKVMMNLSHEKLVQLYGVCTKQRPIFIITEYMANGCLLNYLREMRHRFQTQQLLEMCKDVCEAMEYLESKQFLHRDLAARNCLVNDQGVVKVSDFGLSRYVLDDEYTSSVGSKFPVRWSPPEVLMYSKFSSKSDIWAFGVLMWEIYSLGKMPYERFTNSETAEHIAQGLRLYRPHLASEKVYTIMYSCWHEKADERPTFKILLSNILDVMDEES

[5] = molecular target: Epidermal growth factor receptor (Homo sapiens) (UniProt P00533); test: Inhibition of EGFR (unknown origin) at 1 uM after 60 mins by Z-LYTE assay
Epidermal growth factor receptor (Homo sapiens), sequence (P00533 whole entry): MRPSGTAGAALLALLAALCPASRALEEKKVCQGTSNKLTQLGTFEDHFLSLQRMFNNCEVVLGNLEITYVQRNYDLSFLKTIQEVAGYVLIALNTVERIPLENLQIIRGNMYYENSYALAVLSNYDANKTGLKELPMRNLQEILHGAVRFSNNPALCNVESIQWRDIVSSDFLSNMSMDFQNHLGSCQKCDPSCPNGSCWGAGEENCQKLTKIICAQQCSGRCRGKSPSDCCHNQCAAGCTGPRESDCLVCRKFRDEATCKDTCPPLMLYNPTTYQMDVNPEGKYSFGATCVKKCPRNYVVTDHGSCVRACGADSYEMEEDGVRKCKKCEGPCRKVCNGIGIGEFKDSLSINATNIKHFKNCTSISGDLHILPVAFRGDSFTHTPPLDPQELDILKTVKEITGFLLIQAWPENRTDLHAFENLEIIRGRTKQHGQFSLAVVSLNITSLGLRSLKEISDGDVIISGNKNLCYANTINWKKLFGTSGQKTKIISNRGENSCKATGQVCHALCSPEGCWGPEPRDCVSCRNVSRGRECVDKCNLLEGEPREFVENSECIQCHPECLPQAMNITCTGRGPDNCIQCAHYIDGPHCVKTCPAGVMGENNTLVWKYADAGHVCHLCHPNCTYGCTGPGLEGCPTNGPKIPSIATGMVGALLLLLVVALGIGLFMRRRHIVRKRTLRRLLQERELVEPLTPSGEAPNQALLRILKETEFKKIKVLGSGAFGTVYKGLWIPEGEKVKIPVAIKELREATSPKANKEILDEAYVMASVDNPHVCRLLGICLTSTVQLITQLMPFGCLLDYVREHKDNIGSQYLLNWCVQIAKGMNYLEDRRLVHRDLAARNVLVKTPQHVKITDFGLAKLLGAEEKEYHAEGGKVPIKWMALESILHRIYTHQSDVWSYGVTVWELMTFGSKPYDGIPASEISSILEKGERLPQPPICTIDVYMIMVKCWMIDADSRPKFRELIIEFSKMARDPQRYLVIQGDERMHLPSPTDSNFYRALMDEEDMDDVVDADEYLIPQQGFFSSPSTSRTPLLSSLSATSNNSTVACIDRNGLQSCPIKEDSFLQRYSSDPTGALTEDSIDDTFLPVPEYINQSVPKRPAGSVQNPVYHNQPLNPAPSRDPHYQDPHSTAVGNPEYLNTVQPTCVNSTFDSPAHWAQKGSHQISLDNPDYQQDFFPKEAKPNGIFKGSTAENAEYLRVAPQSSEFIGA

Homo sapiens [6] = species: Homo sapiens; test: Inhibition of IL10/JAK/STAT3 signaling in human PBMC assessed as reduction in LPS-induced IL6 production at 100 nM preincubated for 2 hrs followed by LPS stimulation measured after 24 hrs by ELISA
Homo sapiens [7] = species: Homo sapiens; test: Inhibition of IL10/JAK/STAT3 signaling in human PBMC assessed as reduction in LPS-induced TNFalpha production at 100 nM preincubated for 2 hrs followed by LPS stimulation measured after 24 hrs by ELISA
PBMC = test: Effect on IL6-induced MCP1 production in human PBMC at 100 to 6000 nM preincubated for 2 hrs followed by IL6 stimulation measured after 24 hrs by ELISA; format: functional, cell-based
[8] = Clearance in ICR mouse at 5 mg/kg, po via gavage by LC/MS/MS analysis; format: ADME, organism-based; conditions: in vivo
[9] = molecular target: T1, Tyrosine-protein kinase ITK/TSK (Homo sapiens) (UniProt Q08881); test: Inhibition of ITK (unknown origin) at 1 uM after 60 mins by Z-LYTE assay
T1 sequence (whole entry): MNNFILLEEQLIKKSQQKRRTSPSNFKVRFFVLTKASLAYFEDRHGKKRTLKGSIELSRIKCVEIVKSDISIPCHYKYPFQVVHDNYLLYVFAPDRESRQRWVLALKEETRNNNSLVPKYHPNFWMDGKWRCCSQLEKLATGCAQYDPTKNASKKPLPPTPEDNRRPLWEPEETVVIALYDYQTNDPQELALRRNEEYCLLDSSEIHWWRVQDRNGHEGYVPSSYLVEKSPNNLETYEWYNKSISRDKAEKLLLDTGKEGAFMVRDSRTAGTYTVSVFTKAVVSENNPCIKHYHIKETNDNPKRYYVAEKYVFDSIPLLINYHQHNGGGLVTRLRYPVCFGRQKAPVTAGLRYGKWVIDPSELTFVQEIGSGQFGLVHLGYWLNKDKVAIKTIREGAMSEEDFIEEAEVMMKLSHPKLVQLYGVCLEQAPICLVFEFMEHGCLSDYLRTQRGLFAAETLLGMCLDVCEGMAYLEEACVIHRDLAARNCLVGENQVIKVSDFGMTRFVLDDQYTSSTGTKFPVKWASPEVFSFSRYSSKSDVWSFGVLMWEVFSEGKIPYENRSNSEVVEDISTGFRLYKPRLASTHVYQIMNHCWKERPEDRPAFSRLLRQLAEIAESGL

Glycogen synthase kinase-3 beta (Homo sapiens), sequence (P49841 whole entry, looked up): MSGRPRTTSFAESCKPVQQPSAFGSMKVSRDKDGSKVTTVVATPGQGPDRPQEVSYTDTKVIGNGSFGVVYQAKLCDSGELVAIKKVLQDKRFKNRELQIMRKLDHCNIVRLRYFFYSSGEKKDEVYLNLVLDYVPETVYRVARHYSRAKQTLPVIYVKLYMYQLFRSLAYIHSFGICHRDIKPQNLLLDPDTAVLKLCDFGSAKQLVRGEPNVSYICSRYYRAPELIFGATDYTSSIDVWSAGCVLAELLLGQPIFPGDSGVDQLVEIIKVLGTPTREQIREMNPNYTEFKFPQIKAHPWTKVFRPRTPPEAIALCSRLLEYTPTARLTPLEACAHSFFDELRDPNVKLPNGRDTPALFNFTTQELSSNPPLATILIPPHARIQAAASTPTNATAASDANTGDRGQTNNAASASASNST

| SMILES | inhibition [1] [%] | inhibition [2] [%] | inhibition [3] [%] | inhibition [4] | inhibition [5] | inhibition (Homo sapiens [6]) | inhibition (Homo sapiens [7]) | Activity (PBMC) | CL/F [8] [mL/min/kg] | inhibition [9] |
| --- | --- | --- | --- | --- | --- | --- | --- | --- | --- | --- |
| C=CC(=O)N1CCN(c2ccc([N+](=O)[O-])c(C3=C(c4c[nH]c5ccccc45)C(=O)NC3=O)c2)CC1 | > 80 | > 80 | > 80 | Active | Active | Active | Active | inactive | 138 | Active |
| C=CC(=O)N1C[C@H](Nc2ncnc3[nH]ccc23)CC[C@@H]1C |  |  |  |  |  | Active | Active | inactive |  |  |
| CC(C)(O)C(=O)N1CCN(c2ccc(C(F)(F)F)c(C3=C(c4c[nH]c5ccccc45)C(=O)NC3=O)c2)CC1 |  |  |  |  |  | Active | Active | inactive |  |  |
